For data set [1], the system named is H1975 cells (EGFR L858R/T790M). Description: Inhibitory activity on cell proliferation, H1975. The data set is classed as cell-based. The conditions noted are these: Homo sapiens, NCI-H1975; H1975, 72 hours; read-out: Inhibitory activity on proliferation of cells (IC50, μM) H1975. The protocol:
(§1) Cell proliferation activity was assessed by MTS assay. Cells were exposed to processing conditions for 72 hours and the number of cells used in each experiment for each cell line was adjusted based on absorbance values (absorbance values at 490 nm, 1.3-2.2). Six concentration gradients (0.1 nM-10 μM) were set for the compounds to be tested, wherein at least 6 sets of parallel controls for each concentration were used.
(§2) H1975, A431 cells were cultured in corresponding media, and cells were passaged at least twice after resuscitation and then used for experiments. Cells at Log phase were trypsinized and resuspended in culture medium. H1975 (1000 cells per well), A431 (2000 cells per well) were seeded in 96-well plates in a volume of 100 μL; and 6 sets of parallel controls and 7 columns were set. The plate was placed in a 37° C. 5% CO2 incubator overnight. Compounds were dissolved in DMSO to a concentration of […], and then the concentration was gradually diluted to 10 μM, 1 μM, 0.1 μM, 0.01 μM, 0.001 μM, 0.0001 μM per liter, respectively. 2 μL of the compound solution was added to 998 μL of medium, and the mixture was thoroughly mixed. 100 μL of the mixture was added to a 96-well plate. […] After culturing for 68 hours, 20 μL of MTT (5 mg/mL) was added. After 4 hours, the supernatant was discarded and 150 μL of DMSO was added. After shaking for 10 minutes, the plate was read with Synergy HT (Bio TeK) (OD490). Data were calculated using GraphPad Prism version 4.0 and IC50 values were obtained using a non-linear regression model of dose response curve.

Data set [2] is described as follows: Determination of solubility in water (PBS 20 mM, pH 6.8). The data set is classed as physicochemical. The conditions noted are these: PBS buffer, aqueous buffer, thermodynamic from solid; pH 6.8, 20 mM PBS; read-out: Solubility (pH 6.8, g/mL). The protocol: The suspension was filtered through a 0.22 μm PVDF filter, and then diluted to an appropriate concentration with methanol (v=50%) and PBS (v=50%), and the absorbance was measured by a UV spectrophotometer. About 3 mg of compound was accurately weighed, and methanol was added for preparing a stock solution of 1 mg/mL. The above stock solution was taken and prepared into a solution at concentrations of 0.05, 0.04, 0.03, 0.02 and 0.01 mg/mL, respectively, PBS solution (v=50%) was added and the absorbance value was measured. Concentration c (mg/mL) as horizontal ordinate vs absorbance A as longitudinal coordinate was plotted, and a line was fitted for obtaining a standard curve (correlation coefficient greater than 0.998). The solubility of a compound in water was calculated from the standard curve.

Data set [3] has as its system A431 cells (EGFR wild type). Description: Inhibitory activity on cell proliferation, A431. Format: cell-based. The conditions noted are these: Homo sapiens, A-431; A431, 72 hours; read-out: Inhibitory activity on proliferation of cells (IC50, μM) A431. The protocol:
as §1, §2

The target of a further data set is T1, Wild type EGFR (Homo sapiens, UniProt P00533).
T1 construct: purchased Invitrogen PV3872
Description: Kinase activity test (FRET), wild type EGFR. The data set is classed as biochemical. The conditions noted are these: wild type EGFR; read-out: Inhibitory activity of EGFR on kinase (IC50, nM) WT. As for the experimental part: (§3) EGFR-TK catalyses transfer of one phosphate group of adenosine triphosphate (ATP) to polypeptide substrate, poly(Glu, Tyr)4:1, which is labeled with two fluorescent groups coumarin and fluorescein.
(§4) 2.5 μL of Test Compounds, 5 μL Kinase/Peptide Substrate Mixture, 2.5 μL ATP Solution were added into a 384-well plate, and the 10 μL of reaction system was shaken for 30 s and incubated at room temperature for 1 h. 5 μL of Development Solution was added and the 15 μL of reaction system was shaken for 30 s, and incubated at room temperature for 1 h. […] The inhibitory rates of the compounds at 7 concentration gradients were determined and the IC50 value for each compound was calculated by Origin 8.0 fitting curve.
(§5) 10 concentration gradients from 5.1×10^−11 mol/L to 1.0×10^−6 mol/L were set for all compounds to be tested.
(§6) Compounds were diluted in DMSO for three times from 5.1×10^−9 M to 1×10^−4 M. 4 μL of the compound was dissolved in 96 μL of water to obtain a 4× compound solution. […] The 10 μL kinase reaction consisted of 2.5 μL compound solution, 5 μL kinase/peptide mix, 2.5 μL ATP solution. […] 5 μL of phosphorylated peptide solution, instead of the kinase/peptide mixture, was used as a 100% phosphorylation control. […] The plates were thoroughly mixed and incubated at room temperature for 1.5 hours. 5 μL of Development Solution was added into each well and then incubated for another 1 hour at room temperature, unphosphorylated peptides were cleaved during this period. Finally, 5 μL Stop Reagent was added to quench the reaction. The plates were measured with EnVision Multilabel Reader (Perkin Elmer). The experimental data were calculated using GraphPad Prism version 4.0. Each experiment was repeated more than 3 times.

A further data set has as its target T2, EGFR-L858R/T790M (Homo sapiens, UniProt P00533, L858R/T790M).
T2 construct: purchased Invitrogen PV4879
Description: Kinase activity test (FRET), EGFR T790M/L858R. The data set is classed as biochemical. The conditions noted are these: EGFR T790M/L858R; read-out: Inhibitory activity of EGFR on kinase (IC50, nM) T790M/L858R. As for the experimental part:
as §3, §4, §5, §6

Values after ≈ are worked out from the molar mass of the structure shown. Some results are limits rather than exact numbers.

T2 sequence (P00533 25-1210 T790M/L858R): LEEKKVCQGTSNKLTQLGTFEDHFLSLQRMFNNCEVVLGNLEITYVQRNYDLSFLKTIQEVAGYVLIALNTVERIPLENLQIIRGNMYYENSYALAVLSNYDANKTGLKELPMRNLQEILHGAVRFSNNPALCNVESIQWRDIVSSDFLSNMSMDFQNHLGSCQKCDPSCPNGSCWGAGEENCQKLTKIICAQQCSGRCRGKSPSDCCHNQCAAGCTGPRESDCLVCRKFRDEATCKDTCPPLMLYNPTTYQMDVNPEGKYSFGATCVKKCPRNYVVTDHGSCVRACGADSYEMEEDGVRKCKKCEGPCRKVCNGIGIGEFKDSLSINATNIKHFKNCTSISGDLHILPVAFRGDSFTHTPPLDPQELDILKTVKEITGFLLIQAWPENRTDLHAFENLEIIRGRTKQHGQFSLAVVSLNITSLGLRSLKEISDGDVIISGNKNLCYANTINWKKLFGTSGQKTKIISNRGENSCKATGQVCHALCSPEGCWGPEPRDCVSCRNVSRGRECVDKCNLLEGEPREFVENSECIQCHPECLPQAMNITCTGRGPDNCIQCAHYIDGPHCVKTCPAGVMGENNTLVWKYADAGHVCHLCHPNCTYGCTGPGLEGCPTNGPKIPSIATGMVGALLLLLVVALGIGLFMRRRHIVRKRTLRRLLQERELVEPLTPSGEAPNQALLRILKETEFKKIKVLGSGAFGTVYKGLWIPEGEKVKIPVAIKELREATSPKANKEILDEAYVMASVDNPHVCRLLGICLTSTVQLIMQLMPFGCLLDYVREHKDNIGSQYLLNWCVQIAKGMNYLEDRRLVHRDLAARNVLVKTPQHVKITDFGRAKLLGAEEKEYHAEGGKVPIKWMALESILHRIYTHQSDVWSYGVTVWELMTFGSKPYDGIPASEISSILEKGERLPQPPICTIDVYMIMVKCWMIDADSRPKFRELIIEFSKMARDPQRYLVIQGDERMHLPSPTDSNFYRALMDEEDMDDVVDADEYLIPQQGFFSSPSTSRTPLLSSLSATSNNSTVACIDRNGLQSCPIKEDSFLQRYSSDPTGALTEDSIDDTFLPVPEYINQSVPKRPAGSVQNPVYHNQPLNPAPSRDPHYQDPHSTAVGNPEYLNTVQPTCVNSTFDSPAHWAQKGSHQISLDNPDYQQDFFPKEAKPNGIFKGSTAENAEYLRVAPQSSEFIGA
T1 sequence (P00533 25-1210): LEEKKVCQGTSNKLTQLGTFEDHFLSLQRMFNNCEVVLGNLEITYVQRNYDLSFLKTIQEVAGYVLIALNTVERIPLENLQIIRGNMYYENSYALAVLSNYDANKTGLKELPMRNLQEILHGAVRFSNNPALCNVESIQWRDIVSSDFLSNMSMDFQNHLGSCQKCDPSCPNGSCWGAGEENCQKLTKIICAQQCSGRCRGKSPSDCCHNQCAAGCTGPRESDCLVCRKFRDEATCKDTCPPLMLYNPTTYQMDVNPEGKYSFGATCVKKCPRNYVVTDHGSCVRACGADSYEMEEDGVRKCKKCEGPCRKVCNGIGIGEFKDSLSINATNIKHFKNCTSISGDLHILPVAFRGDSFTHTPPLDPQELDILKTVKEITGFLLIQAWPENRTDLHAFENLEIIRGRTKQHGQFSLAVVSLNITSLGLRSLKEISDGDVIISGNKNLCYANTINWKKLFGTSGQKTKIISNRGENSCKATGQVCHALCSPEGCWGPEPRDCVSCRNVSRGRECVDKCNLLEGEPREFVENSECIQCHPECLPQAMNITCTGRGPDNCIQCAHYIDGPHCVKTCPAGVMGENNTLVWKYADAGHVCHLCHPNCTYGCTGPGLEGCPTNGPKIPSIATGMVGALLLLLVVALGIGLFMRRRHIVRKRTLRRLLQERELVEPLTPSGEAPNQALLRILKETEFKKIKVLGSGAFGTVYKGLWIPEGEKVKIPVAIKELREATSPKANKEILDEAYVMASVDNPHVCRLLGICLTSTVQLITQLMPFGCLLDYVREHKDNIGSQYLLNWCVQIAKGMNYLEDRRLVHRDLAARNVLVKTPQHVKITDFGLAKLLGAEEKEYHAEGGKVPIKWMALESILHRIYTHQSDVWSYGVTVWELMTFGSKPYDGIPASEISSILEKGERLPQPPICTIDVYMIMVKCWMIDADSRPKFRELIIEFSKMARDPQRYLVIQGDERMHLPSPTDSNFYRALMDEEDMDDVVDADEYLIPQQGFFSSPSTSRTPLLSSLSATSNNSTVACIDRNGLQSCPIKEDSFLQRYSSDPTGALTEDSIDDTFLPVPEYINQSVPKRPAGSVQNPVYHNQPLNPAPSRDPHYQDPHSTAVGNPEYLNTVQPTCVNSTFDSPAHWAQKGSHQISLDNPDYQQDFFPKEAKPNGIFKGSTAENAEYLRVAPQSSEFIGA

As to `C=CC(=O)Nc1cccc(-n2c(=O)c(C(C)C)nc3cnc(Nc4ccc(N5CCN(C)CC5)cc4)nc32)c1` [Compound 13, N-(3-(6-isopropyl-2-((4-(4-methyl-1-piperazinyl)phenyl)amino)-7-oxo-8(7H)-pteridinyl)phenyl)acrylamide], the IC50 in data set [1] was determined as 0.046 µM; in data set [3], 1.48 µM; at Wild type EGFR, 4.2 nM; at EGFR-L858R/T790M it was 5.7 nM. Further, the solubility in data set [2] is 8.9 µg/mL (≈ 17 µM).

In the case of `C=CC(=O)N1CCC[C@@H](Cn2c(=O)cnc3cnc(Nc4ccc(N5CCN(C)CC5)cc4OC)nc32)C1` [Compound 16, (R)-8-((1-acryloyl-3-piperidinyl)methyl)-2-((2-methoxy-4-(4-methyl-1-piperazinyl)phenyl)amino)-7(8H)-pteridinone], the IC50 is greater than 10 µM in data set [1], greater than 10 µM in data set [3], 4700 nM on Wild type EGFR and greater than 10000 nM on EGFR-L858R/T790M. Further, the solubility in data set [2] is 956 µg/mL (≈ 1840 µM).

In the case of `C=CC(=O)N1CCC[C@H](Cn2c(=O)cnc3cnc(Nc4ccc(N5CCN(C)CC5)cc4OC)nc32)C1` [Compound 17], the IC50 was 1.42 µM in data set [1], greater than 10 µM in data set [3], 2190 nM on Wild type EGFR and 191 nM at EGFR-L858R/T790M. Also, in data set [2], the solubility is 957 µg/mL (≈ 1850 µM).

As for `C=CC(=O)Nc1cccc(-n2c(=O)cnc3cnc(Nc4ccc(N(C)CCN(C)C)cc4OC)nc32)c1` [Compound 18, N-(3-(2-((4-((2-(dimethylamino)ethyl)(methyl)amino)-2-methoxyphenyl)amino)-7-oxo-8(7H)-pteridinyl)phenyl)acrylamide], the IC50 was determined as 0.06 µM in data set [1], 1.66 µM in data set [3], 47 nM on Wild type EGFR and 1 nM on EGFR-L858R/T790M. In addition, in data set [2], the solubility is 208 µg/mL (≈ 405 µM).

`C=CC(=O)Nc1cccc(-n2c(=O)c(C(C)C)nc3cnc(Nc4ccc(N(C)CCN(C)C)cc4OC)nc32)c1` [Compound 19, N-(3-(2-((4-((2-(dimethylamino)ethyl)(methyl)amino)-2-methoxyphenyl)amino)-6-isopropyl-7-oxo-8(71-1)-pteridinyl)phenyl)acrylamide]: the IC50 in data set [1] was found to be 1.16 µM; in data set [3], 3.41 µM; at Wild type EGFR it was 174 nM; on EGFR-L858R/T790M, 14.1 nM. The solubility in data set [2] was found to be 90.7 µg/mL (≈ 163 µM).

For `C=CC(=O)Nc1cccc(-n2c(=O)c(-c3ccccc3)nc3cnc(Nc4ccc(N(C)CCN(C)C)cc4OC)nc32)c1` [Compound 20, N-(3-(2-((4-((2-(dimethylamino)ethyl)(methyl)amino)-2-methoxyphenyl)amino)-7-oxo-6-phenyl-8(7H)-pteridinyl)phenyl)acrylamide], the IC50 in data set [1] turned out to be 0.04 µM; in data set [3] it was 6 µM; at Wild type EGFR, 15 nM; on EGFR-L858R/T790M it was 1.3 nM. Further, the solubility in data set [2] is 7.4 µg/mL (≈ 12.5 µM).

Turning to `C=CC(=O)N1CCC[C@@H](Cn2c(=O)c(C(C)C)nc3cnc(Nc4ccc(N5CCN(C)CC5)cc4OC)nc32)C1` [Compound 21, (R)-8-((1-acryloyl-3-piperidinyl)methyl)-6-isopropyl-2-((2-methoxy-4-(4-methyl-1-piperazinyl)phenyl)amino)-7(8H)-pteridinone], the IC50 was 4.49 µM in data set [1], greater than 10 µM in data set [3], 2880 nM on Wild type EGFR and 251 nM on EGFR-L858R/T790M. Further, the solubility in data set [2] came out at 72.2 µg/mL (≈ 129 µM).

Consider `C=CC(=O)N1CCC[C@@H](n2c(=O)cnc3cnc(Nc4ccc(N5CCN(C)CC5)cc4OC)nc32)C1` [Compound 22], for which the IC50 in data set [1] was greater than 10 µM; in data set [3] it was greater than 10 µM; on Wild type EGFR it was greater than 10000 nM; at EGFR-L858R/T790M, 6900 nM. The solubility in data set [2] worked out at 3230 µg/mL (≈ 6410 µM).

Take `C=CC(=O)Nc1cc(Nc2ncc3nc(C(C)C)c(=O)n(C)c3n2)c(OC)cc1N(C)CCN(C)C` [Compound 23]: the IC50 in data set [1] came out at 1.85 µM; in data set [3], 3.2 µM; at Wild type EGFR it was 1730 nM; at EGFR-L858R/T790M, 939 nM. Also, the solubility in data set [2] came to 1690 µg/mL (≈ 3410 µM).

Regarding `C=CC(=O)N1CC[C@H](n2c(=O)c(C(C)C)nc3cnc(Nc4ccc(N5CCN(C)CC5)c(C)c4)nc32)C1` [Compound 24, (S)-8-(1-acryloyl-3-pyrrolidinyl)-6-isopropyl-2-((3-methyl-4-(4-methyl-1-piperazinyl)phenyl)amino)-7(8H)-pteridinone], the IC50 in data set [1] amounted to 2.49 µM; in data set [3], 3.1 µM; at Wild type EGFR, 700 nM; at EGFR-L858R/T790M, 576 nM. In addition, the solubility in data set [2] came out at 2920 µg/mL (≈ 5650 µM).

With `C=CC(=O)N1CC[C@H](n2c(=O)c(-c3ccccc3)nc3cnc(Nc4ccc(N5CCN(C)CC5)c(C)c4)nc32)C1` [Compound 25, (S)-8-(1-acryloyl-3-pyrrolidinyl)-2-((3-methyl-4-(4-methyl-1-piperazinyl)phenyl)amino)-6-phenyl-7(8H)-pteridinone], the IC50 turned out to be 0.016 µM in data set [1], 1.75 µM in data set [3], 65.2 nM on Wild type EGFR and 1.5 nM on EGFR-L858R/T790M. In data set [2], the solubility was 56.7 µg/mL (≈ 103 µM).

With `C=CC(=O)N1CC[C@H](n2c(=O)c(C(C)C)nc3cnc(Nc4ccc(N5CCN(C)CC5)cc4OC)nc32)C1` [Compound 26, (S)-8-(1-acryloyl-3-pyrrolidinyl)-6-isopropyl-2-((2-methoxy-4-(4-methyl-1-piperazinyl)phenyl)amino)-7(8H)-pteridinone], the IC50 came to 3.23 µM in data set [1], 9.5 µM in data set [3], 1300 nM at Wild type EGFR and 559 nM on EGFR-L858R/T790M. Also, the solubility in data set [2] was found to be 10500 µg/mL (≈ 19700 µM).

Consider `C=CC(=O)N1CC[C@H](n2c(=O)c(-c3ccccc3)nc3cnc(Nc4ccc(N5CCN(C)CC5)cc4OC)nc32)C1` [Compound 27, (S)-8-(1-acryloyl-3-pyrrolidinyl)-2-((2-methoxy-4-(4-methyl-1-piperazinyl)phenyl)amino)-6-phenyl-7(8H)-pteridinone], for which the IC50 was 0.116 µM in data set [1], 1.85 µM in data set [3], 53.7 nM on Wild type EGFR and 3.8 nM on EGFR-L858R/T790M. In addition, in data set [2], the solubility was found to be 264 µg/mL (≈ 465 µM).

For the compound `COc1cc(N2CCN(C)CC2)ccc1Nc1ncc2nc(C(C)C)c(=O)n([C@H]3CCN(C(=O)/C=C/CN(C)C)C3)c2n1` [Compound 28], the IC50 was 8.38 µM in data set [1], greater than 10 µM in data set [3], greater than 10000 nM at Wild type EGFR and greater than 10000 nM on EGFR-L858R/T790M. Moreover, in data set [2], the solubility amounted to 3970 µg/mL (≈ 6730 µM).

These data come from patent US11306095B2 (EAST CHINA UNIVERSITY OF SCIENCE AND TECHNOLOGY, priority 2015, dated 2022).
